The values that follow come from US20230036854A1, “HETEROCYCLIC SPIRO-COMPOUNDS AS AM2 RECEPTOR INHIBITORS” (THE UNIVERSITY OF SHEFFIELD, priority 2018, published 2023).

The target of the assay is T1, AM2 receptor (1321N1 cells transfected with CALCRL+RAMP3) (Homo sapiens, UniProt O60896+Q16602).
T1 construct: host or cells: 1321N1 cells
T1 sequence (Q16602 23-461): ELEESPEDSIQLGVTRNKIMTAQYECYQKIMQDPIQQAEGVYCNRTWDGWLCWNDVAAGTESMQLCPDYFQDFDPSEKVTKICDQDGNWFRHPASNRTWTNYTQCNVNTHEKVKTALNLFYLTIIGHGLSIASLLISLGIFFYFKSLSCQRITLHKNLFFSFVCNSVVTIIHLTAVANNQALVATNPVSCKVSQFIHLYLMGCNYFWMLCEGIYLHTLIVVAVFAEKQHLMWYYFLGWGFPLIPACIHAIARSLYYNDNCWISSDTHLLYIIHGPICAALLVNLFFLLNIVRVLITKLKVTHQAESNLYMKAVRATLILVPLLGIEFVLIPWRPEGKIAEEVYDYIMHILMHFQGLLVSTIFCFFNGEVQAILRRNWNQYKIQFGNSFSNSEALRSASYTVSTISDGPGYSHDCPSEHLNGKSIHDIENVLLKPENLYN
T1 sequence (O60896 24-148): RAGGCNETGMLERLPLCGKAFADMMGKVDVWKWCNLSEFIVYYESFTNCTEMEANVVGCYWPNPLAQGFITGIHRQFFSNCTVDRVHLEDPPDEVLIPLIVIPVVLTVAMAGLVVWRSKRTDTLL
The experiment in a line: AM2 receptor inhibition, LANCE cAMP agonist-antagonist competition assay. Particulars: inhibition of AM induced cAMP activation, read-out: AM2 D2 protocol: pIC50 (converted). The class given is cell-based. As for the experimental part:
Compounds were assessed for their ability to inhibit ligand-induced elevations of cAMP, using the Perkin Elmer LANCE cAMP assay using commercially-available cells expressing a specific receptor of interest using the following general procedure:
Compounds were prepared in dimethyl sulfoxide (DMSO—99.9% pure) (Sigma Aldrich, Cat #: D4540) added to powder stocks to produce a 20 mM solution (100% DMSO) that was sonicated at 37° C. for 10 minutes to fully dissolve the compounds. The 20 mM stocks were diluted further in DMSO to produce a 2 mM solution that was sonicated at 37° C. for 10 minutes. 2 mM stocks were dissolved in assay/stimulation buffer to produce a 400 μM solution that was sonicated at 37° C. for 10 minutes for all cAMP assays. All stocks were stored at −20° C. Then serial dilution (Dilution factor: 10) was performed to achieve the desire experimental concentrations.
Competition assays were performed according to the manufactures instructions using LANCE® TR-FRET cAMP assay kit (Perkin Elmer, Cat #: AD0264). Serial dilutions (3 μl/well) of the molecules were plated in a 384-well OptiPlate (Perkin Elmer, Cat #: 6007299) in duplicates. Appropriate controls (100% stimulation: Forskolin and 0% stimulation: Vehicle control) (6 μl/well) were included in each plate for data normalization. Following the compound addition, 6 μl of G-protein coupled receptor overexpressing cells/Alexa Fluor antibody solution (1:100 dilution) was added in each well at a desired density of 2500cells/well. The overexpressing cell lines were purchased from DiscoveRx, Birmingham, UK. After spinning the plate at 1000 rpm for 1 minute and vortexing briefly, the cells were pre-incubated with the compounds for 30 minutes at room temperature (covered). Then 3 μl of the equivalent peptide ligand (EC50 dose) was added to all the wells except vehicle and forskolin controls. The plate were then spun down at 1000 rpm for 1 minute and once finished they were vortexed briefly and covered. Cells were stimulated in the presence of the ligands for 15 minutes at room temperature. After stimulation 12 μl of detection mix (Europium-Chelate streptavidin/biotinylated cAMP tracer solution) was added to all wells and incubated for 60 minutes at room temperature. The plate was then read on the Enspire multimode Plate reader (Perkin Elmer), at; 320/340 nm excitation and 615/665 nm emission was recorded.
Assay/Stimulation Buffer (30 mL)—pH 7.4 • 28 mL Hank's Balanced salt solution (+MgCl2, +CaCl2)—(Thermo Fisher Cat #:14170112) • 150 μl HEPES (1M)—(Thermo Fisher Cat #:15630080) • 400 μl Stabilizer (DTPA) Purified BSA (7.5%)—(Perkin Elmer, Cat #: CR84-100)
The ability of a compound to inhibit the AM induced cAMP activation in AM2 receptor-expressing cells (1321N1 cells transfected with CALCRL+RAMP3, sourced from DiscoverX catalogue number 95-0169C6) was assessed using the protocol above.
Turning to `CNCc1ccccc1CN(CC(=O)Nc1ccc2c(c1)C[C@@]1(C2)C(=O)Nc2ncccc21)C(=O)C1(C)CCN(C(=O)c2cccc(C(=O)O)c2)CC1` [Example 33, (R)-3-(4-Methyl-4-((2-((methylamino)methyl)benzyl)(2-oxo-2-((2′-oxo-1,1′,2′,3-tetrahydrospiro[indene-2,3′-pyrrolo[2,3-b]pyridin]-5-yl)amino)ethyl)carbamoyl)piperidine-1-carbonyl)benzoic Acid], the IC50 is 15.1 nM.
For `CNCc1ccccc1CN(CC(=O)Nc1ccc2c(c1)C[C@@]1(C2)C(=O)Nc2ncccc21)C(=O)C1(C)CCN(C(=O)c2ccccc2C(=O)O)CC1` [Example 34, (R)-2-(4-Methyl-4-((2-((methylamino)methyl)benzyl)(2-oxo-2-((2′-oxo-1,1′,2′,3-tetrahydrospiro[indene-2,3′-pyrrolo[2,3-b]pyridin]-5-yl)amino)ethyl)carbamoyl)piperidine-1-carbonyl)benzoic Acid] the value was 70.8 nM; for `CNCc1ccccc1CN(CC(=O)Nc1ccc2c(c1)C[C@@]1(C2)C(=O)Nc2ncccc21)C(=O)C1(C)CCN(C(=O)c2ccc(C(=O)O)cc2)CC1` [Example 35, (R)-4-(4-Methyl-4-((2-((methylamino)methyl)benzyl)(2-oxo-2-((2′-oxo-1,1′,2′,3-tetrahydrospiro[indene-2,3′-pyrrolo[2,3-b]pyridin]-5-yl)amino)ethyl)carbamoyl)piperidine-1-carbonyl)benzoic Acid], 3.8 nM.
Then `CNCc1ccccc1CN(CC(=O)Nc1ccc2c(c1)C[C@@]1(C2)C(=O)Nc2ncccc21)C(=O)C1(C)CCN(C)CC1` [Example 36, (R)-1,4-Dimethyl-N-(2-((methylamino)methyl)benzyl)-N-(2-oxo-2-((2′-oxo-1,1′,2′,3-tetrahydrospiro[indene-2,3′-pyrrolo[2,3-b]pyridin]-5-yl)amino)ethyl)piperidine-4-carboxamide], with 1.82 nM; and `CNCc1ccccc1CN(CC(=O)Nc1ccc2c(c1)C[C@@]1(C2)C(=O)Nc2ncccc21)C(=O)C1(C)CCN(CC(N)=O)CC1` [Example 37, (R)-1-(2-Amino-2-oxoethyl)-4-methyl-N-(2-((methylamino)methyl)benzyl)-N-(2-oxo-2-((2′-oxo-1,1′,2′,3-tetrahydrospiro[indene-2,3′-pyrrolo[2,3-b]pyridin]-5-yl)amino)ethyl)piperidine-4-carboxamide], with 35.5 nM; and `CNCc1ccccc1CN(CC(=O)Nc1ccc2c(c1)CC1(C2)C(=O)Nc2ncccc21)C(=O)C1(C)CCN(CC(F)(F)F)CC1` (centres unmarked) [Example 38, 4-Methyl-N-(2-((methylamino)methyl)benzyl)-N-(2-oxo-2-((2′-oxo-1,1′,2′,3-tetrahydrospiro[indene-2,3′-pyrrolo[2,3-b]pyridin]-5-yl)amino)ethyl)-1-(2,2,2-trifluoroethyl)piperidine-4-carboxamide], with 10.5 nM.
As to `CNCc1ccccc1CN(CC(=O)Nc1ccc2c(c1)C[C@@]1(C2)C(=O)Nc2ncccc21)C(=O)C1(C)CCN(CC(F)(F)F)CC1` [Example 39, (R)-4-Methyl-N-(2-((methylamino)methyl)benzyl)-N-(2-oxo-2-((2′-oxo-1,1′,2′,3-tetrahydrospiro[indene-2,3′-pyrrolo[2,3-b]pyridin]-5-yl)amino)ethyl)-1-(2,2,2-trifluoroethyl)piperidine-4-carboxamide], the IC50 was 19.5 nM.
`CNCc1ccccc1CN(CC(=O)Nc1ccc2c(c1)C[C@@]1(C2)C(=O)Nc2ncccc21)C(=O)C1(C)CCN(Cc2ccccc2)CC1` [Example 40, (R)-1-Benzyl-4-methyl-N-(2-((methylamino)methyl)benzyl)-N-(2-oxo-2-((2′-oxo-1,1′,2′,3-tetrahydrospiro[indene-2,3′-pyrrolo[2,3-b]pyridin]-5-yl)amino)ethyl)piperidine-4-carboxamide]: the IC50 is 6.31 nM.
For the compound `CNCc1ccccc1CN(CC(=O)Nc1ccc2c(c1)C[C@@]1(C2)C(=O)Nc2ncccc21)C(=O)C1(C)CCN(CCOC)CC1` [Example 41, (R)-1-(2-Methoxyethyl)-4-methyl-N-(2-((methylamino)methyl)benzyl)-N-(2-oxo-2-((2′-oxo-1,1′,2′,3-tetrahydrospiro[indene-2,3′-pyrrolo[2,3-b]pyridin]-5-yl)amino)ethyl)piperidine-4-carboxamide], the IC50 was 1.1 nM.
Then `CNCc1ccccc1CN(CC(=O)Nc1ccc2c(c1)C[C@@]1(C2)C(=O)Nc2ncccc21)C(=O)C1(C)CCN(CCO)CC1` [Example 42, (R)-1-(2-Hydroxyethyl)-4-methyl-N-(2-((methylamino)methyl)benzyl)-N-(2-oxo-2-((2′-oxo-1,1′,2′,3-tetrahydrospiro[indene-2,3′-pyrrolo[2,3-b]pyridin]-5-yl)amino)ethyl)piperidine-4-carboxamide], with 6.46 nM.
For `CNCc1ccccc1CN(CC(=O)Nc1ccc2c(c1)C[C@@]1(C2)C(=O)Nc2ncccc21)C(=O)C1(C)CCN(CC(=O)O)CC1` [Example 43, (R)-2-(4-Methyl-4-((2-((methylamino)methyl)benzyl)(2-oxo-2-((2′-oxo-1,1′,2′,3-tetrahydrospiro[indene-2,3′-pyrrolo[2,3-b]pyridin]-5-yl)amino)ethyl)carbamoyl)piperidin-1-yl)acetic Acid] the value was 135 nM; for `CNCc1ccccc1CN(CC(=O)Nc1ccc2c(c1)C[C@@]1(C2)C(=O)Nc2ncccc21)C(=O)C1(C)CCN(CC(=O)N2CCNCC2)CC1` [Example 44, (R)-4-Methyl-N-(2-((methylamino)methyl)benzyl)-N-(2-oxo-2-((2′-oxo-1,1′,2′,3-tetrahydrospiro[indene-2,3′-pyrrolo[2,3-b]pyridin]-5-yl)amino)ethyl)-1-(2-oxo-2-(piperazin-1-yl)ethyl)piperidine-4-carboxamide], 10.7 nM.
Then `CNCc1ccccc1CN(CC(=O)Nc1ccc2c(c1)CC1(C2)C(=O)Nc2ncccc21)C(=O)C1(C)CCN(CC(=O)O)CC1` (centres unmarked) [Example 45, 2-(4-Methyl-4-((2-((methylamino)methyl)benzyl)(2-oxo-2-((2′-oxo-1,1′,2′,3-tetrahydrospiro[indene-2,3′-pyrrolo[2,3-b]pyridin]-5-yl)amino)ethyl)carbamoyl)piperidin-1-yl)acetic Acid], with 2.34 nM; and `CNCc1ccccc1CN(CC(=O)Nc1ccc2c(c1)C[C@@]1(C2)C(=O)Nc2ncccc21)C(=O)C1(C)CCN(Cc2ccc(C(=O)O)cc2)CC1` [Example 46, (R)-4-[[4-Methyl-4-[[2-(methylaminomethyl)phenyl]methyl-[2-oxo-2-[[(3R)-2-oxospiro[1H-pyrrolo[2,3-b]pyridine-3,2′-indane]-5′-yl]amino]ethyl]carbamoyl]-1-piperidyl]methyl]benzoic Acid], with 25.7 nM; and `CNCc1ccccc1CN(CC(=O)Nc1ccc2c(c1)C[C@@]1(C2)C(=O)Nc2ncccc21)C(=O)C1(C)CCN(Cc2cccc(C(=O)O)c2)CC1` [Example 47, (R)-3-((4-Methyl-4-((2-((methylamino)methyl)benzyl)(2-oxo-2-((2′-oxo-1,1′,2′,3-tetrahydrospiro[indene-2,3′-pyrrolo[2,3-b]pyridin]-5-yl)amino)ethyl)carbamoyl)piperidin-1-yl)methyl)benzoic Acid], with 5.01 nM.
On to `CNCc1ccccc1CN(CC(=O)Nc1ccc2c(c1)C[C@@]1(C2)C(=O)Nc2ncccc21)C(=O)C1(C)CCN(CC2CCNCC2)CC1` [Example 49, (R)-4-Methyl-N-(2-((methylamino)methyl)benzyl)-N-(2-oxo-2-((2′-oxo-1,1′,2′,3-tetrahydrospiro[indene-2,3′-pyrrolo[2,3-b]pyridin]-5-yl)amino)ethyl)-1-(piperidin-4-ylmethyl)piperidine-4-carboxamide], for which the IC50 is 1.55 nM.
For `CNCc1ccccc1CN(CC(=O)Nc1ccc2c(c1)C[C@@]1(C2)C(=O)Nc2ncccc21)C(=O)C1(C)CCN(Cc2ccncc2)CC1` [Example 50, (R)-4-Methyl-N-(2-((methylamino)methyl)benzyl)-N-(2-oxo-2-((2′-oxo-1,1′,2′,3-tetrahydrospiro[indene-2,3′-pyrrolo[2,3-b]pyridin]-5-yl)amino)ethyl)-1-(pyridin-4-ylmethyl)piperidine-4-carboxamide] the value was 2.19 nM.
